According to US7906522B2, “2-aminoquinazoline derivatives” (Kyowa Hakko Kirin Co., Ltd, priority 2005, dated 2011):

The molecules below were run against T1, Activated human p38α (Homo sapiens, UniProt Q16539) (assay: p38MAP kinase inhibition test). Settings: at a concentration of 1 μmol/L; substrate myelin basic protein, ATP 20 μmol/L, [γ-32P]ATP; read-out: enzyme inhibitory activity.
T1 construct: purchased Upstate Biotechnology Inc. 14-251
Type: biochemical
How it was run: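 Radiometric kinase assay with myelin basic protein (20 μg/assay) as substrate, 20 μmol/L ATP plus [γ-32P]ATP, MOPS pH 7.2 with MgCl2 18.75 mmol/L. Reaction run 15 min at 30° C., stopped with phosphoric acid; 32P-MBP captured on phosphocellulose and counted by scintillation.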

T1 sequence (Q16539 whole entry): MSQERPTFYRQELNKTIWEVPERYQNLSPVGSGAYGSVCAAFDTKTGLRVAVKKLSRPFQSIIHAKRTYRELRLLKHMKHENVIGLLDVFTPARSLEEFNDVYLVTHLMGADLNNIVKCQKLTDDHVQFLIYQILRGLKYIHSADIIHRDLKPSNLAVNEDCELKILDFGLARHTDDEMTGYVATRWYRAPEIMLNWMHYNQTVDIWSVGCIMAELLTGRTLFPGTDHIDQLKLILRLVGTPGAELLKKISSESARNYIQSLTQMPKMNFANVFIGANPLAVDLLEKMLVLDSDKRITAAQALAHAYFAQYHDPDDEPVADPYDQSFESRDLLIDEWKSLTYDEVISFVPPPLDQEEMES

Structure (SMILES) | inhibition at 1 µM [%]
COc1cc2nc(NC(C)C)ncc2cc1-c1cccc(NC(=O)c2ccc[nH]2)c1 [Compound 209, 2-Isopropylamino-7-methoxy-6-{3-[(1H-pyrrol-2-yl)carbonylamino]phenyl}quinazoline] | ≥ 50
COc1cc2nc(NC(C)C)ncc2cc1-c1cccc(NC(=O)Nc2ccccc2)c1 [Compound 210, 2-Isopropylamino-7-methoxy-6-[3-(3-phenylureido)phenyl]quinazoline] | ≥ 50
COc1cc2nc(NC(C)C)ncc2cc1-c1cccc(NC(=O)c2cc3ccccc3[nH]2)c1 [Compound 211, 6-{3-[(1H-indol-2-yl)carbonylamino]phenyl}-2-isopropylamino-7-methoxyquinazoline] | ≥ 50
COc1cc2nc(NC(C)C)ncc2cc1-c1cccc(NC(=O)c2ccc(C(F)(F)F)cc2)c1 [Compound 213, 2-Isopropylamino-7-methoxy-6-{3-[(4-trifluoromethylphenyl)carbonylamino]phenyl}quinazoline] | ≥ 50
COc1cc2nc(NC(C)C)ncc2cc1-c1cccc(NC(=O)c2ccc(OC(F)(F)F)cc2)c1 [Compound 214, 2-Isopropylamino-7-methoxy-6-{3-[(4-trifluoromethoxyphenyl)carbonylamino]phenyl}quinazoline] | ≥ 50
COc1cc2nc(NC(C)C)ncc2cc1-c1cccc(NC(=O)c2ccncc2)c1 [Compound 215, 2-Isopropylamino-7-methoxy-6-{3-[(4-pyridyl)carbonylamino]phenyl}quinazoline] | ≥ 50
COc1cc2nc(NC(C)C)ncc2cc1-c1cccc(NC(=O)c2cccc(C(F)(F)F)c2)c1 [Compound 216, 2-Isopropylamino-7-methoxy-6-{3-[(3-trifluoromethylphenyl)carbonylamino]phenyl}quinazoline] | ≥ 50
COc1cc2nc(NC(C)C)ncc2cc1-c1cccc(NC(=O)c2ccccc2C(F)(F)F)c1 [Compound 217, 2-Isopropylamino-7-methoxy-6-{3-[(2-trifluoromethylphenyl)carbonylamino]phenyl}quinazoline] | ≥ 50
COc1cc2nc(NC(C)C)ncc2cc1-c1cccc(NC(=O)c2cccc(F)c2)c1 [Compound 219, 6-{3-[(3-Fluorophenyl)carbonylamino]phenyl}-2-isopropylamino-7-methoxyquinazoline] | ≥ 50
COc1cc2nc(NC(C)C)ncc2cc1-c1cccc(NC(=O)c2cccnc2)c1 [Compound 221, 2-Isopropylamino-7-methoxy-6-{3-[(3-pyridyl)carbonylamino]phenyl}quinazoline] | ≥ 50
COc1cc2nc(NC(C)C)ncc2cc1-c1cccc(NC(=O)C2CCC2)c1 [Compound 222, 6-[3-(Cyclobutylcarbonylamino)phenyl]-2-isopropylamino-7-methoxyquinazoline] | ≥ 50
COc1cc2nc(NC(C)C)ncc2cc1-c1cc(NC(=O)c2ccnc(N3CCOCC3)c2)ccc1C [Compound 231, 2-Isopropylamino-7-methoxy-6-{2-methyl-5-[(2-morpholinopyridin-4-yl)carbonylamino]phenyl}quinazoline] | ≥ 50
COc1cc2nc(NC3CCN(S(C)(=O)=O)CC3)ncc2cc1-c1ccccc1C=O [Compound 237, 6-(2-Formylphenyl)-7-methoxy-2-[1-(methylsulfonyl)piperidin-4-ylamino]quinazoline] | ≥ 50
COc1cc2nc(NC3CCN(S(C)(=O)=O)CC3)ncc2cc1-c1cccc(NC(C)=O)c1 [Compound 238, 6-(3-Acetylaminophenyl)-7-methoxy-2-[1-(methylsulfonyl)piperidin-4-ylamino]quinazoline] | ≥ 50
COc1cc2nc(NC3CCN(S(C)(=O)=O)CC3)ncc2cc1-c1ccccc1NC(C)=O [Compound 239, 6-(2-Acetylaminophenyl)-7-methoxy-2-[1-(methylsulfonyl)piperidin-4-ylamino]quinazoline] | ≥ 50
COc1cc2nc(NC3CCN(S(C)(=O)=O)CC3)ncc2cc1-c1cccc(O)c1 [Compound 240, 6-(3-Hydroxyphenyl)-7-methoxy-2-[1-(methylsulfonyl)piperidin-4-ylamino]quinazoline] | ≥ 50
COc1cc2nc(NC3CCN(S(C)(=O)=O)CC3)ncc2cc1-c1ccccc1O [Compound 241, 6-(2-Hydroxyphenyl)-7-methoxy-2-[1-(methylsulfonyl)piperidin-4-ylamino]quinazoline] | ≥ 50
COc1cc2nc(NC3CCN(S(C)(=O)=O)CC3)ncc2cc1-c1ccccc1C(=O)O [Compound 242, 6-(2-Carboxyphenyl)-7-methoxy-2-[1-(methylsulfonyl)piperidin-4-ylamino]quinazoline] | ≥ 50
COc1cc2nc(NC3CCOCC3)ncc2cc1-c1cccc(NC(C)=O)c1 [Compound 243, 6-(3-Acetylaminophenyl)-7-methoxy-2-(4-tetrahydropyranylamino)quinazoline] | ≥ 50
CC(C)Nc1ncc2cc(-c3cccc(O)c3)c(O)cc2n1 [Compound 244, 7-Hydroxy-6-(3-hydroxyphenyl)-2-(isopropylamino)quinazoline] | ≥ 50
Cc1ccccc1-c1cc2cnc(NC(C)C)nc2cc1O [Compound 245, 7-Hydroxy-2-isopropylamino-6-(2-methylphenyl)quinazoline] | ≥ 50
COc1cc2nc(N)ncc2cc1-c1cc(NC(C)=O)ccc1C [Compound 249, 6-(5-Acetylamino-2-methylphenyl)-2-amino-7-methoxyquinazoline] | ≥ 50
CNc1ncc2cc(-c3cc(NC(C)=O)ccc3C)c(OC)cc2n1 [Compound 250, 6-(5-Acetylamino-2-methylphenyl)-7-methoxy-2-(methylamino)quinazoline] | ≥ 50
CNc1ncc2cc(-c3cc(NC(=O)c4ccc[nH]4)ccc3C)c(OC)cc2n1 [Compound 251, 7-Methoxy-2-methylamino-6-{2-methyl-5-[(1H-pyrrol-2-yl)carbonylamino]phenyl}quinazoline] | ≥ 50

Results, then the molecule that gave them:

inhibition at 1 µM [%] | Structure (SMILES)
≥ 50 | COc1cc2nc(NC(C)C)ncc2cc1-c1cccc(C)c1 [Compound 203, 2-Isopropylamino-7-methoxy-6-(3-methylphenyl)quinazoline]
≥ 50 | COc1cc2nc(NC(C)C)ncc2cc1-c1cccc(F)c1 [Compound 204, 6-(3-Fluorophenyl)-2-isopropylamino-7-methoxyquinazoline]
≥ 50 | COc1cc2nc(NC(C)C)ncc2cc1-c1ccc(F)cc1C [Compound 206, 6-(4-Fluoro-2-methylphenyl)-2-isopropylamino-7-methoxyquinazoline]
≥ 50 | COc1cc2nc(NC(C)C)ncc2cc1-c1cccc(OC)c1F [Compound 207, 6-(2-Fluoro-3-methoxyphenyl)-2-isopropylamino-7-methoxyquinazoline]
≥ 50 | COc1cc2nc(NC(C)C)ncc2cc1-c1ccco1 [Compound 208, 6-(2-Furyl)-2-isopropylamino-7-methoxyquinazoline]
≥ 50 | CNC(=O)Nc1cccc(-c2cc3cnc(NC(C)C)nc3cc2OC)c1 [Compound 212, 2-Isopropylamino-7-methoxy-6-[3-(3-methylureido)phenyl]quinazoline]
≥ 50 | COc1cc2nc(NC(C)C)ncc2cc1-c1cccc(NC(=O)C2CC2)c1 [Compound 220, 6-[3-(Cyclopropylcarbonylamino)phenyl]-2-isopropylamino-7-methoxyquinazoline]
≥ 50 | COc1cc2nc(NC(C)C)ncc2cc1-c1cc([N+](=O)[O-])ccc1CO [Compound 223, 6-(2-Hydroxymethyl-5-nitrophenyl)-2-isopropylamino-7-methoxyquinazoline]
≥ 50 | COc1cc2nc(NC(C)C)ncc2cc1-c1cc(N)ccc1CO [Compound 224, 6-[5-Amino-2-(hydroxymethyl)phenyl]-2-isopropylamino-7-methoxyquinazoline]
≥ 50 | COc1cc2nc(NC(C)C)ncc2cc1-c1cc(NC(C)=O)ccc1CO [Compound 225, 6-[5-Acetylamino-2-(hydroxymethyl)phenyl]-2-isopropylamino-7-methoxyquinazoline]
≥ 50 | COc1cc2nc(NC(C)C)ncc2cc1-c1cc(NC(C)=O)ccc1C#N [Compound 227, 6-(5-Acetylamino-2-cyanophenyl)-2-isopropylamino-7-methoxyquinazoline]
≥ 50 | COc1cc2nc(NC(C)C)ncc2cc1-c1cc(NC(=O)c2ccc[nH]2)ccc1CO [Compound 228, 6-{2-Hydroxymethyl-5-[(1H-pyrrol-2-yl)carbonylamino]phenyl}-2-isopropylamino-7-methoxyquinazoline]
≥ 50 | COc1cc2nc(NC(C)C)ncc2cc1-c1cc(N)ccc1C [Compound 229, 6-(5-Amino-2-methylphenyl)-2-isopropylamino-7-methoxyquinazoline]
≥ 50 | COc1cc2nc(NC(C)C)ncc2cc1-c1cc(NC(C)=O)ccc1C [Compound 230, 6-(5-Acetylamino-2-methylphenyl)-2-isopropylamino-7-methoxyquinazoline]
≥ 50 | COc1cc2nc(NC(C)C)ncc2cc1-c1cc(NC(=O)c2ccc[nH]2)ccc1C [Compound 232, 2-Isopropylamino-7-methoxy-6-{2-methyl-5-[(1H-pyrrol-2-yl)carbonylamino]phenyl}quinazoline]
≥ 50 | COc1cc2nc(NC(C)C)ncc2cc1-c1cc(NC(C)=O)ccc1F [Compound 233, 6-(5-Acetylamino-2-fluorophenyl)-2-isopropylamino-7-methoxyquinazoline]
≥ 50 | COc1ccc(NC(C)=O)cc1-c1cc2cnc(NC(C)C)nc2cc1OC [Compound 234, 6-(5-Acetylamino-2-methoxyphenyl)-2-isopropylamino-7-methoxyquinazoline]
